Consider 30 compounds from ChEMBL document CHEMBL2439973, “Discovery of VU0409106: A negative allosteric modulator of mGlu5 with activity in a mouse model of anxiety” (Bioorg Med Chem Lett, 2013).

The target in series [1] is Metabotropic glutamate receptor 5 (Rattus norvegicus, UniProt P31424). Briefly: Negative allosteric modulation of rat mGlu5 receptor expressed in HEK293A cells assessed as inhibition of glutamate-induced calcium mobilization preincubated for 140 seconds prior to glutamate-stimulation measured after 60 seconds. The series is classed as functional, cell-based, HEK293-A.

Series [2] has as its target Metabotropic glutamate receptor 5 (Rattus norvegicus) (UniProt P31424). Briefly: Negative allosteric modulation of rat mGlu5 receptor expressed in HEK293A cells assessed as inhibition of glutamate-induced calcium mobilization at 30 uM preincubated for 140 seconds prior to glutamate-stimulation measured after 60 seconds relative to glutamate. The series is classed as functional, cell-based. Conditions: HEK293-A.

The next series concerns the target Cytochrome P450 3A4 (Homo sapiens, UniProt P08684). Briefly: Inhibition of CYP3A4 in human liver microsomes in presence of NADPH. The series is classed as ADME, Microsome.
Series [3] deals with Brain. The series is described as follows: Fraction unbound in mouse brain homogenates by equilibrium dialysis technique. To be noted: brain homogenate. The series is classed as ADME, tissue-based.
The nature of series [4]: Ratio of drug level in brain to plasma in CD-1 mouse at 10 mg/kg, ip by LC-MS/MS analysis. To be noted: brain and plasma, read-out: BPR. The series is classed as ADME, organism-based. Also on record: dose 10 mg/kg, route intraperitoneal.
The test system of series [5] is Brain. The series is described as follows: AUC in CD-1 mouse brain at 10 mg/kg, ip by LC-MS/MS analysis. Conditions: in vivo. The series is classed as ADME, organism-based. Also on record: dose 10 mg/kg, route intraperitoneal.
For series [6], the system named is Plasma. The series is described as follows: AUC in CD-1 mouse plasma at 10 mg/kg, ip by LC-MS/MS analysis. The series is classed as ADME, organism-based. Also on record: dose 10 mg/kg, route intraperitoneal. To be noted: in vivo.
Series [7] is described as follows: Cmax in CD-1 mouse brain at 10 mg/kg, ip by LC-MS/MS analysis. The series is classed as ADME, organism-based. Also on record: dose 10 mg/kg, route intraperitoneal.
The subject of series [8] is Brain. Briefly: Tmax in CD-1 mouse brain at 10 mg/kg, ip by LC-MS/MS analysis. The series is classed as ADME, organism-based. Also on record: dose 10 mg/kg, route intraperitoneal. Conditions: in vivo.
Series [9] relates to Plasma. Briefly: Cmax in CD-1 mouse plasma at 10 mg/kg, ip by LC-MS/MS analysis. The series is classed as ADME, organism-based. Also on record: dose 10 mg/kg, route intraperitoneal. Conditions: in vivo.
Series [10] relates to Plasma. Briefly: Tmax in CD-1 mouse plasma at 10 mg/kg, ip by LC-MS/MS analysis. Details: dose 10 mg/kg, route intraperitoneal. The series is classed as ADME, organism-based. Conditions: in vivo.

Cytochrome P450 3A4, sequence (P08684 whole entry): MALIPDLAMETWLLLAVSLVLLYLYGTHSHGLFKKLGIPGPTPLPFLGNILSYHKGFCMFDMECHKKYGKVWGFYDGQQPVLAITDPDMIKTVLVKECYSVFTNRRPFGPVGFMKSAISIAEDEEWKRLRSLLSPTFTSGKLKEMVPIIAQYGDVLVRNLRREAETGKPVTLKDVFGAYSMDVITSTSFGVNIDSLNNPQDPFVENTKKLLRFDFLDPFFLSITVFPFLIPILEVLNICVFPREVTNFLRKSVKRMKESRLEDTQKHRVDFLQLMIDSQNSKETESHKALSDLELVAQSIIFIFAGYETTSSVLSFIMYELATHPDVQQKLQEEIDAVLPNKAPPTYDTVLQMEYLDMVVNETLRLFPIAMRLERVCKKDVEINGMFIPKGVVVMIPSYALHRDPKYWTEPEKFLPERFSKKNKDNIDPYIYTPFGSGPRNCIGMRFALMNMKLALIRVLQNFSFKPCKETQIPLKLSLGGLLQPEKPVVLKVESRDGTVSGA
Metabotropic glutamate receptor 5, sequence (P31424 whole entry): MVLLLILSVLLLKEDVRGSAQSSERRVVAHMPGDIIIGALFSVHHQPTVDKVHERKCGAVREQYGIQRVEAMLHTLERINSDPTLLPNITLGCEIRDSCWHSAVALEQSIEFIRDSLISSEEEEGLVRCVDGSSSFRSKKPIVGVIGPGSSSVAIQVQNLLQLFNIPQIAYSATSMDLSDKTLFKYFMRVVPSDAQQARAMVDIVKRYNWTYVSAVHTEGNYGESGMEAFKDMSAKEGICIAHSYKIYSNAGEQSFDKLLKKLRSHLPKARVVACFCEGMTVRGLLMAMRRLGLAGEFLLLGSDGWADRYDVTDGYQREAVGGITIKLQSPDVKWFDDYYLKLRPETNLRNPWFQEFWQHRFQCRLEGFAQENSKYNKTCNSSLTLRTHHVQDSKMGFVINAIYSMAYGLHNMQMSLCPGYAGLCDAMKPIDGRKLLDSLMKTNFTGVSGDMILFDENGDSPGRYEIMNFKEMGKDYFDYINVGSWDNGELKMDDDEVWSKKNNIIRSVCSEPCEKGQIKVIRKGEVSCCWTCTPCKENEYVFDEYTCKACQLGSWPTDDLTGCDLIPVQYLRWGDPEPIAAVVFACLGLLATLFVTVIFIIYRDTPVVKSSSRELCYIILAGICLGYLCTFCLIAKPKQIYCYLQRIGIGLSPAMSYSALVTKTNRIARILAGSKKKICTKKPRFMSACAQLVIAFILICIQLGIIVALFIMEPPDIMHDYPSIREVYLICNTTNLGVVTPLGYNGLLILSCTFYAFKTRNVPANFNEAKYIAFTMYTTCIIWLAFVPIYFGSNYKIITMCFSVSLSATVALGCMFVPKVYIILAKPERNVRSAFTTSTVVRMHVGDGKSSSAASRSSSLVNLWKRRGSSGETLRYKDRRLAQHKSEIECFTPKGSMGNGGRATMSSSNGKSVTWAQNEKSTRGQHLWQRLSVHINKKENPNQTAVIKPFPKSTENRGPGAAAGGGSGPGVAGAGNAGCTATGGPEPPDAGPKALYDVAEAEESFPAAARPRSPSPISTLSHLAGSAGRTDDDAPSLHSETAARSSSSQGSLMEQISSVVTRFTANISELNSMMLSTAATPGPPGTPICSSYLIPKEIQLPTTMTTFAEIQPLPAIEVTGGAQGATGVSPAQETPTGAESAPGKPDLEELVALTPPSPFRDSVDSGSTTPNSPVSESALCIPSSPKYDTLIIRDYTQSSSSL
Metabotropic glutamate receptor 5 (Rattus norvegicus), sequence (P31424 21-1203 limits assumed): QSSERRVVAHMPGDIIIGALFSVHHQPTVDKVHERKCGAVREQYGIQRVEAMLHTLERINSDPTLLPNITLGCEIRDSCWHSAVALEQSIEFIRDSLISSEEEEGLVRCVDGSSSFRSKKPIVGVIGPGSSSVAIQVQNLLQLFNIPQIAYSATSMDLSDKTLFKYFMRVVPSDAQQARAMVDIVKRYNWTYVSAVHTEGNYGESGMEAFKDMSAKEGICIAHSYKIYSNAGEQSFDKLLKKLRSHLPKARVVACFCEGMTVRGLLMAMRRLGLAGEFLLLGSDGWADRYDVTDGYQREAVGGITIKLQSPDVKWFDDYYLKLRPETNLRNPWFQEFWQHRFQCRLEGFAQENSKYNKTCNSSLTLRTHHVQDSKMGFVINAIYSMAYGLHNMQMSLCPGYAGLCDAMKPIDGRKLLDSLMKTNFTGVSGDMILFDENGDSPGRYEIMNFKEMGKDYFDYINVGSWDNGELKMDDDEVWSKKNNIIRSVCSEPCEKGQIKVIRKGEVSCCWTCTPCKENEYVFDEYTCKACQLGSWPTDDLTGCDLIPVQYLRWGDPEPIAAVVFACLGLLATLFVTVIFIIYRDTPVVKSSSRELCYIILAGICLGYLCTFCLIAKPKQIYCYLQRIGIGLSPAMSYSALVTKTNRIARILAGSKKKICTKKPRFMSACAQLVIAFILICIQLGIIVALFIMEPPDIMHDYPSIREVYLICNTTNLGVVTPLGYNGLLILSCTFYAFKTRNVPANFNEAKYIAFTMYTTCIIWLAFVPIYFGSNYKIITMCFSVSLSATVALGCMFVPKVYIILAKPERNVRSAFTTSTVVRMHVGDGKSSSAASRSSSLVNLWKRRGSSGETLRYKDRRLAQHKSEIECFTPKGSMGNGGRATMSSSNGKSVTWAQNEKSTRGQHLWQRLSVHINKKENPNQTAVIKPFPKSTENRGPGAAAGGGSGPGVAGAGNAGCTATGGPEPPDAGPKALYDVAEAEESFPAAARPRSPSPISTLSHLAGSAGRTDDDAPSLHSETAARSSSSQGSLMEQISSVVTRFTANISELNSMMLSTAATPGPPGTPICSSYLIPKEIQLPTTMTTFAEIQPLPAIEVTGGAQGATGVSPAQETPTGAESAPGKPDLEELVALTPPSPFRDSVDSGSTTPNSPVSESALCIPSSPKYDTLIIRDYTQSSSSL

`Cc1cc(NC(=O)c2cc(Cl)cc(Oc3cncnc3)c2)ncc1F`: the half-maximal inhibitory concentration (IC50) in series [1] turned out to be 3250 nM.
`Cc1cccc(NC(=O)c2cc(Cl)cc(Oc3cncc(C#N)c3)c2)n1`: the %max in [2] was found to be 1.6%. Moreover, the IC50 in series [1] was 10 nM.
With `O=C(Nc1nc(C(F)F)cs1)c1cc(Cl)cc(Oc2cncnc2)c1`, the concentration for half-maximal inhibition (IC50) in series [1] stood at 310 nM.
Regarding `O=C(Nc1nccs1)c1cc(F)cc(Oc2cncnc2)c1`, the IC50 in [1] was 1790 nM.
Same read-out and setting: next, `O=C(Nc1ccc(Cl)cn1)c1cc(Cl)cc(Oc2cncnc2)c1`: 103 nM; `O=C(Nc1ccc(F)c(C(F)F)n1)c1cc(Cl)cc(Oc2cncnc2)c1`: 502 nM.
As for `Nc1cc(NC(=O)c2cccc(Cl)c2)cc(Oc2cccnc2)c1`, the %max in [2] stood at 1.3%. Moreover, the half-inhibitory concentration (IC50) in series [1] was 284 nM.
With `O=C(Nc1ccc(F)cn1)c1cc(Cl)cc(Oc2cncc(F)c2)c1`, the IC50 on Cytochrome P450 3A4 amounted to 1300 nM; in series [1], 25 nM. The %max in series [2] stood at 1.1%. In the series on Brain [3], this compound returned a Fu of 0.007.
Turning to `Cc1cccc(NC(=O)c2cccc(Oc3cccnc3)c2)c1`, the %max in series [2] was 1.4%. In [1], the IC50 is 2190 nM.
For `Cc1nc(NC(=O)c2cc(F)cc(Oc3cncnc3)c2)sc1F`, the IC50 in series [1] worked out at 54 nM.
In the case of `Cc1cccc(NC(=O)c2cc(Cl)cc(Oc3cncc(F)c3)c2)n1`, the IC50 at Cytochrome P450 3A4 turned out to be 700 nM; in [1], 7.5 nM. Besides, in [2], the %max came out at 1.8%. Further, the Fu with Brain [3] is given as 0.003.
In the case of `O=C(Nc1cccc(Cl)c1)c1cccc(Oc2cccnc2)c1`, the %max in series [2] amounted to 1.6%. Moreover, the half-inhibitory concentration (IC50) in series [1] was found to be 1960 nM.
For the compound `Cc1csc(NC(=O)c2cc(Cl)cc(Oc3cncnc3)c2)n1`, the IC50 at Cytochrome P450 3A4 amounted to 2200 nM. In the series with Brain [3], this compound showed a Fu of 0.025.
Turning to `O=C(Nc1cccc(Cl)n1)c1cc(Cl)cc(Oc2cncnc2)c1`, the IC50 on Cytochrome P450 3A4 is 1900 nM. Also, the Fu in the series on Brain [3] is on record as 0.019.
With `Cc1csc(NC(=O)c2cccc(Oc3cccnc3)c2)n1`, the IC50 in series [1] amounted to 772 nM.
In the case of `Cc1cccc(NC(=O)c2cc(Cl)cc(Oc3cncnc3)c2)n1`, on Cytochrome P450 3A4, the IC50 was 4300 nM. The Fu with Brain [3] stood at 0.052.
In the case of `Cc1csc(NC(=O)c2cccc(Oc3cncnc3)c2)n1`, the IC50 in series [1] was determined as 205 nM.
For the compound `O=C(Nc1cccc(F)n1)c1cc(Cl)cc(Oc2cncnc2)c1`, at Cytochrome P450 3A4, the IC50 is below 100 nM. The Fu with Brain [3] was determined as 0.057.
`O=C(Nc1ccc(F)cn1)c1cc(Oc2cncnc2)cc(C(F)(F)F)c1`: the %max in series [2] worked out at 3.2%. For the same compound, the IC50 in series [1] is 5530 nM.
On the same counts, the results for `Cc1cccc(NC(=O)c2cc(Cl)cc(Oc3cnc(C)nc3)c2)n1` are 1.6% and 96 nM.
For the compound `Cc1cc(Oc2cncnc2)cc(C(=O)Nc2ccc(F)cn2)c1`, the IC50 in [1] was found to be 19 nM.
For `Cc1ncc(Oc2cc(Cl)cc(C(=O)Nc3ccc(F)cn3)c2)cn1`, the %max in series [2] is 2.6%. Also, the IC50 in series [1] was 4470 nM.
In the case of `O=C(Nc1ccc(F)cn1)c1cccc(Oc2cccnc2)c1`, the IC50 in [1] was 3780 nM.
Regarding `O=C(Nc1ccc(F)cn1)c1cc(Cl)cc(Oc2cncnc2)c1`, the Kp in series [4] worked out at 0.93. Further, the AUC in the series with Brain [5] is 365 ng·h/g; with Plasma [6], 391 ng·h/mL. The Cmax was 311 ng/g in series [7] and 303 ng/mL in the series with Plasma [9]. For the same compound, the figures for the time of peak concentration (Tmax) in the series on Brain [8] and in the series with Plasma [10] were 15 min and 30 min, respectively. For the same compound, at Cytochrome P450 3A4, the IC50 was determined as 6200 nM. In the series on Brain [3], this compound displayed a Fu of 0.08.
Regarding `Cc1nc(NC(=O)c2cc(Cl)cc(Oc3cncnc3)c2)ccc1F`, the IC50 in [1] was found to be 50 nM.
`N#Cc1cc(Oc2cncnc2)cc(C(=O)Nc2ccc(F)cn2)c1`: the %max in [2] was 1.1%. Besides, in series [1], the IC50 came out at 318 nM.
Regarding `COc1cccc(NC(=O)c2cc(F)cc(Oc3cncnc3)c2)n1`, the IC50 in series [1] is 668 nM.
Regarding `Cc1csc(NC(=O)c2cc(Oc3cncnc3)cc(C(F)(F)F)c2)n1`, in [2], the %max stood at 1.7%. Besides, the IC50 in series [1] is 283 nM.
On to `N#Cc1cncc(Oc2cc(Cl)cc(C(=O)Nc3ccc(F)cn3)c2)c1`, for which the IC50 on Cytochrome P450 3A4 came out at 1700 nM; in [1], 27 nM. The %max in series [2] worked out at 1.7%. Also, the Fu in the series with Brain [3] was found to be 0.016.
As to `CCc1ccnc(NC(=O)c2cc(Cl)cc(Oc3cncnc3)c2)c1`, the IC50 in series [1] was determined as 4450 nM.
